In patent US20200121704A1, “METHODS FOR TREATING HYPERTENSION AND ARTERIAL STIFFNESS” (THE REGENTS OF THE UNIVERSITY OF COLORADO, A BODY CORPORATE, priority 2017, published 2020):

Assays:
Assay type in all cases: in vivo, human
[1] = tested on: healthy middle-aged and older adults; experiment: Treatment-emergent adverse events and tolerability, randomized double blinded placebo controlled crossover study
Method: The inventors hypothesized that oral supplementation with the nicotinamide adenine dinucleotide (NAD+) increasing compound, nicotinamide riboside (NR) would reduce blood pressure (BP) and aortic pulse wave velocity (aPWV, a measure of large elastic artery stiffness). This hypothesis was tested in healthy middle-aged and older human adults (65±2 yrs, n=24) in a randomized, placebo-controlled crossover study.
(§1) Sixty subjects were consented for this study. This study was conducted in the Integrative Physiology of Aging Laboratory and the Clinical and Translational Research Center (CTRC) at the University of Colorado Boulder. All blood assays were performed at either Boulder Community Hospital or the University of Colorado Denver Anschutz Medical Campus CTRC Core Laboratory. All testing sessions were performed after an overnight fast and 24-hour abstention from exercise and alcohol consumption. All subjects refrained from all prescription medications for 24 hours and over the counter medications for 48 hours prior to all testing visits.
A randomized, double blinded, placebo controlled crossover design was implemented for this study. Healthy middle-aged and older (55-79 years) adult men and postmenopausal women were recruited from the Boulder/Denver metro area. Subjects were nonsmokers and free of clinical diseases as assessed by a medical history, physical examination, blood chemistry and resting and exercise ECG. […] Four subjects dropped out of the study prior to randomization due to time commitment and one subject was unresponsive to scheduling requests resulting in a total of 30 remaining subjects for randomization. Of these, fifteen subjects were randomized to Group A, which received placebo pills during the first 6 weeks of the study before crossing over to receive NR pills for 6 weeks. The remaining fifteen subjects were randomized to Group B, which received NR pills first followed by placebo. One subject was excluded from Group A due to a change in medication status that no longer met inclusion criteria and two subjects in Group A dropped out of the study due to a complaint of side effects. Two subjects were excluded from Group B due to a change in health or medication status that no longer met inclusion criteria and one subject dropped out of Group B due to a broken ankle, resulting in a total of 24 subjects who completed the trial (FIG. 1). These subjects were well matched by age, sex and baseline characteristics between groups and all baseline values were within normal clinical ranges, as shown in Table 1:
14 treatment-emergent adverse events (AEs) were reported by 7 of the 30 participants enrolled in the study.

[2] = Comprehensive metabolic panel (blood chemistry, renal function, liver enzymes)
Method: as §1
Clinical laboratory values were obtained from blood samples collected at the end of each intervention phase in 21 subjects. Complete blood work was not obtained in three subjects due to a failed catheterization during at least one of the testing phases.

[3] = tested on: PBMCs; experiment: NAD+ and related metabolites in PBMCs
Source text: Oral NR supplementation effectively elevated levels of NAD^+ in PBMCs by about 60% compared with placebo (mean change=6.2 pMol/mg protein) (Table 6). […] Of note, NR also elevated levels of nicotinic acid adenine dinucleotide (NAAD) nearly 5-fold above the placebo condition. […] Though not significant, we also observed an ˜1.5-fold increase in nicotinamide mononucleotide (NMN; mean change=0.72 pMol/mg protein), which may indicate the possible conversion of NR to NMN by nicotinamide riboside kinase (NRK) enzymes or further metabolism of NaM into NMN by nicotinamide phosphoribosyltransferase (NAMPT). […] Collectively, these findings indicate that chronic NR supplementation effectively stimulates NAD^+ metabolism in healthy middle-aged and older men and women.

[4] = tested on: endothelin-1 (ET-1); experiment: Circulating endothelin-1 concentration; settings: compared with placebo
Source text: To gain potential insight into the underlying mechanisms by which nicotinamide riboside lowers blood pressure, we assessed plasma concentrations of endothelin-1 (ET-1), a potent vasoconstrictor that is released by the vascular endothelium to regulate vascular smooth muscle tone. […] Thus, nicotinamide riboside may lower blood pressure and arterial stiffness by suppressing ET-1-mediated vasoconstriction.

[5] = NR condition, end of 6-week phase, mean ± SEM, 21 subjects
[6] = PBMCs, NR condition, mean ± SD, N = 21
[7] = PBMCs, NR condition, mean ± SD, N = 21, *p < 0.05
[8] = PBMCs, did not reach statistical significance

Structure (SMILES): NC(=O)c1ccc[n+]([C@@H]2O[C@H](CO)[C@@H](O)[C@H]2O)c1 [NR, nicotinamide riboside]
- Drowsiness, # events ([1]; NR condition, 6 weeks oral): 0 (0)
- Drowsiness, # events/patient ([1]; NR condition, 6 weeks oral): 0 (0)
- Fainting, # events ([1]; NR condition, 6 weeks oral): 0 (0)
- Fainting, # events/patient ([1]; NR condition, 6 weeks oral): 0 (0)
- Flushing/Hot flashes, # events ([1]; NR condition, 6 weeks oral): 1 (1)
- Flushing/Hot flashes, # events/patient ([1]; NR condition, 6 weeks oral): 1 (1)
- Headache, # events ([1]; NR condition, 6 weeks oral): 0 (0)
- Headache, # events/patient ([1]; NR condition, 6 weeks oral): 0 (0)
- Increased Bruising, # events ([1]; NR condition, 6 weeks oral): 1 (1)
- Increased Bruising, # events/patient ([1]; NR condition, 6 weeks oral): 1 (1)
- Leg cramps, # events ([1]; NR condition, 6 weeks oral): 1 (1)
- Leg cramps, # events/patient ([1]; NR condition, 6 weeks oral): 1 (1)
- Nausea, # events ([1]; NR condition, 6 weeks oral): 1 (1)
- Nausea, # events/patient ([1]; NR condition, 6 weeks oral): 1 (1)
- Skin Rash, # events ([1]; NR condition, 6 weeks oral): 1 (1)
- Skin Rash, # events/patient ([1]; NR condition, 6 weeks oral): 1 (1)
- Severity of adverse events ([1]; all AEs): mild in severity
- Tolerability ([1]; at the dose tested): well tolerated
- Severe adverse events ([1]; during the study): No severe adverse events occurred
- Association of flushing with supplementation ([1]; flushing reported in both placebo and NR conditions): unlikely associated with NR supplementation
- ALT (SGPT) [2, 5]: 30.8 ± 2.4 IU/L
- AST (SGOT) [2, 5]: 32.1 ± 1.5 IU/L
- BUN [2, 5]: 17 ± 1 mg/dL
- CO2 [2, 5]: 26 ± 1 mEq/L
- albumin [2, 5]: 3.6 ± 0.1 g/dL
- alk phosphatase [2, 5]: 63.4 ± 2.9 IU/L
- calcium [2, 5]: 9.2 ± 0.1 mg/dL
- chloride [2, 5]: 104 ± 1 mEq/L
- creatinine [2, 5]: 0.9 ± 0.03 mg/dL
- eGFR [2, 5]: 74 ± 3 ml/min/1.73 m^2
- glucose [2, 5]: 87 ± 1 mg/dL
- potassium [2, 5]: 4.2 ± 0.1 mEq/L
- sodium [2, 5]: 139 ± 1 mEq/L
- total bilirubin [2, 5]: 0.8 ± 0.1 mg/dL
- total protein [2, 5]: 6.3 ± 0.1 g/dL
- Difference between treatment conditions for blood chemistry (including markers of renal function and liver enzymes) ([2]; NR vs placebo): No meaningful differences
- Elevation of NAAD above the placebo condition ([3]; PBMCs): ~5 fold
- NR ([3]; PBMCs, NR condition, N = 21): <LOQ
- 2-3 cAMP [3, 6]: 0.0 ± 0.0 pMol/mg protein
- 3-5 cAMP [3, 6]: 0.0 ± 0.0 pMol/mg protein
- ADP [3, 6]: 1133.8 ± 1880.4 pMol/mg protein
- AMP [3, 6]: 770.8 ± 1884.3 pMol/mg protein
- CDP [3, 6]: 67.7 ± 113.1 pMol/mg protein
- CMP [3, 6]: 137.2 ± 366.0 pMol/mg protein
- CTP [3, 6]: 41.0 ± 68.4 pMol/mg protein
- Cytidine [3, 6]: 4.7 ± 6.6 pMol/mg protein
- FAD [3, 6]: 10.2 ± 5.9 pMol/mg protein
- GDP [3, 6]: 198.4 ± 329.0 pMol/mg protein
- GMP [3, 6]: 1010.1 ± 2114.8 pMol/mg protein
- GTP [3, 6]: 327.1 ± 119.1 pMol/mg protein
- Guanosine [3, 6]: 0.5 ± 1.5 pMol/mg protein
- NADP [3, 6]: 8.9 ± 8.7 pMol/mg protein
- NMN [3, 6]: 1.2 ± 3.3 pMol/mg protein
- NaM [3, 6]: 383.8 ± 282.7 pMol/mg protein
- UDP [3, 6]: 270.0 ± 420.7 pMol/mg protein
- UMP [3, 6]: 1113.7 ± 2374.2 pMol/mg protein
- UTP [3, 6]: 340.3 ± 150.1 pMol/mg protein
- Uridine [3, 6]: 278.3 ± 718.4 pMol/mg protein
- cCMP [3, 6]: 1.8 ± 8.4 pMol/mg protein
- cGMP [3, 6]: 0.0 ± 0.0 pMol/mg protein
- ATP [3, 7]: 2435.7 ± 1230.3* pMol/mg protein
- Adenosine [3, 7]: 14.4 ± 9.7* pMol/mg protein
- NAAD [3, 7]: 1.4 ± 2.2* pMol/mg protein
- NAD+ [3, 7]: 16.2 ± 14.1* pMol/mg protein
- ATP mean change ([3]; PBMCs, NR vs placebo): 699 pMol/mg protein
- Mean concentration of adenosine ([3]; PBMCs, NR vs placebo): increases in the mean concentration
- Mean concentration of nicotinamide (NaM) ([3]; PBMCs, NR vs placebo): elevated the mean concentration of nicotinamide (NaM), but this was not statistically significant
- Mean level of NADP+ ([3]; PBMCs, NR vs placebo): increased, but did not reach statistical significance
- NAD+ mean change ([3]; PBMCs, NR vs placebo): 6.2 pMol/mg protein
- NMN mean change ([3]; PBMCs, NR vs placebo): 0.72 pMol/mg protein
- Levels of adenosine diphosphate (ADP) [3, 8]: tended to raise
- Levels of adenosine monophosphate (AMP) [3, 8]: tended to raise
- Increase in NMN ([3]; PBMCs, not significant): ~1.5 fold
- Elevation of NAD+ levels in PBMCs compared with placebo ([3]; oral NR supplementation): about 60%
- Serum ET-1 concentrations [4]: lowers serum ET-1 concentrations
